# Measurements: patent US20040204341A1, “Nr2b receptor antagonists for the treatment or prevention of migraines” (priority 2001, published 2004)
compound,measurement,value
"O=C(NCC1CCN(C(=O)OCc2ccccc2)CC1)c1ccc(O)cc1 [Example 1, 4-[(4-Hydroxy-benzoylamino)-methyl]-piperidine-1-carboxylic acid benzyl ester]",melting point,122 to 123 °C
